From PubChem BioAssay AID200 (DTP/NCI, 2004)
Values joined by “and” are separate entries in the source; they are usually repeats but may differ in a detail not shown here. Identical values can stand only once. Toxic doses and inconclusive results are not listed. Where a SMILES comes first, the peptide text is derived from it. [ ]: non-standard residue; d: D form. The star is where a group is joined. Cbz = O=C(OCc1ccccc1)*; Nva = CCC[CH](N)C(=O)O

Tested on: B6C3F1 mice, B16 melanoma ip, median survival T/C
Experiment: NCI In Vivo Anticancer Drug Screen. Data for tumor model B16 Melanoma (intraperitoneal) in B6C3F1 mice
Details: endpoint: median survival time, higher = longer survival
Experimental: The antitumor activity of compounds was measured in mice bearing transplantable tumors. Survival or tumor size were measured and the results are expressed as the measurement made in the treated group (T) divided by the measurement made in the vehicle treated control group (C). The tumor model used in this assay is B16 Melanoma (intraperitoneal) in B6C3F1 mice

[1] = dose: 6.25 mg/kg/injection, schedule: Q01DX009 (ip), vehicle: saline
[2] = dose: 12.5 mg/kg/injection, schedule: Q01DX009 (ip), vehicle: saline
[3] = dose: 25.0 mg/kg/injection, schedule: Q01DX009 (ip), vehicle: saline
[4] = dose: 0.75 mg/kg/injection, schedule: Q01DX009 (ip), vehicle: saline with Tween-80
[5] = dose: 1.5 mg/kg/injection, schedule: Q01DX009 (ip), vehicle: saline with Tween-80
[6] = dose: 3.0 mg/kg/injection, schedule: Q01DX009 (ip), vehicle: saline with Tween-80
[7] = dose: 6.0 mg/kg/injection, schedule: Q01DX009 (ip), vehicle: saline with Tween-80
[8] = dose: 25.0 mg/kg/injection, schedule: Q01DX009 (ip), vehicle: saline with Tween-80
[9] = dose: 50.0 mg/kg/injection, schedule: Q01DX009 (ip), vehicle: saline with Tween-80
[10] = dose: 100.0 mg/kg/injection, schedule: Q01DX009 (ip), vehicle: saline with Tween-80
[11] = dose: 200.0 mg/kg/injection, schedule: Q01DX009 (ip), vehicle: saline with Tween-80
[12] = dose: 100.0 mg/kg/injection, schedule: Q01DX009 (ip), vehicle: Klucel (hydroxypropylcellulose) (HPC)
[13] = dose: 200.0 mg/kg/injection, schedule: Q01DX009 (ip), vehicle: Klucel (hydroxypropylcellulose) (HPC)
[14] = dose: 25.0 mg/kg/injection, schedule: Q01DX009 (ip), vehicle: Klucel (hydroxypropylcellulose) (HPC)
[15] = dose: 50.0 mg/kg/injection, schedule: Q01DX009 (ip), vehicle: Klucel (hydroxypropylcellulose) (HPC)
[16] = dose: 12.5 mg/kg/injection, schedule: Q01DX009 (ip), vehicle: Klucel (hydroxypropylcellulose) (HPC)

In the case of `O=C(Nc1cccnc1)c1ccc([N+](=O)[O-])s1`, the T/C (dose: 1.13 mg/kg/injection, schedule: Q01DX009 (ip), vehicle: saline) was 96 % of control, the T/C (dose: 1.88 mg/kg/injection, schedule: Q01DX009 (ip), vehicle: saline) was 92 % of control and the T/C (dose: 3.13 mg/kg/injection, schedule: Q01DX009 (ip), vehicle: saline) was 97 % of control. For the same molecule, the T/C (dose: 5.21 mg/kg/injection, schedule: Q01DX009 (ip), vehicle: saline) was 94 % of control, the T/C [1] was 103 % of control and the T/C (dose: 8.69 mg/kg/injection, schedule: Q01DX009 (ip), vehicle: saline) was 89 % of control. For the same molecule, the T/C [2] was 97 % of control and the T/C [3] was 87 % of control and 99 % of control.

For `O=C1C2CC(CN3CCCCC23)C2CCCCN12` (stereo not drawn), the T/C (dose: 37.5 mg/kg/injection, schedule: Q01DX009 (ip), vehicle: saline) was 104 % of control, the T/C (dose: 75.0 mg/kg/injection, schedule: Q01DX009 (ip), vehicle: saline) was 105 % of control and the T/C (dose: 150.0 mg/kg/injection, schedule: Q01DX009 (ip), vehicle: saline) was 97 % of control.

In the case of `c1ccc2c(c1)[As]=c1ccccc1=[As]2` (stereo not drawn), the T/C [4] was 105 % of control, the T/C [5] was 112 % of control and 103 % of control and the T/C [6] was 107 % of control and 108 % of control. For the same molecule, the T/C [7] was 115 % of control and 98 % of control, the T/C (dose: 12.0 mg/kg/injection, schedule: Q01DX009 (ip), vehicle: saline with Tween-80) was 122 % of control and the T/C (dose: 24.0 mg/kg/injection, schedule: Q01DX009 (ip), vehicle: saline with Tween-80) was 87 % of control.

For `Cn1c(-c2ccc(/C=N\N3CCN(/N=C/c4ccc(-c5c[n+]6ccsc6n5C)cc4)CC3)cc2)c[n+]2ccsc12`, the T/C [4] was 103 % of control, the T/C [5] was 104 % of control and the T/C [6] was 113 % of control. For the same molecule, the T/C [7] was 113 % of control.

In the case of `Cc1ccc(N)c(N)c1`, the T/C [8] was 95 % of control, the T/C [9] was 99 % of control and the T/C [10] was 102 % of control. The T/C [11] was 104 % of control.

In the case of `Nc1ccc2ccc(NS(=O)(=O)N3CCCCC3)cc2c1`, the T/C [8] was 110 % of control, the T/C [9] was 98 % of control and the T/C [10] was 111 % of control. For the same molecule, the T/C [11] was 107 % of control.

`Nc1ncnc2c1ncn2C1OCC(O)C1O` (stereo not drawn) was tested, and the T/C [2] was 118 % of control, the T/C [3] was 121 % of control and the T/C (dose: 100.0 mg/kg/injection, schedule: Q01DX009 (ip), vehicle: suspension in saline) was 124 % of control.

With `Cc1cc(N(CC(C)Br)CC(C)Br)ccc1N=Nc1ccccc1C(=O)O` (stereo not drawn) the T/C (dose: 0.78 mg/kg/injection, schedule: Q01DX009 (ip), vehicle: saline) was 105 % of control, the T/C (dose: 1.56 mg/kg/injection, schedule: Q01DX009 (ip), vehicle: saline with Tween-80) was 110 % of control and the T/C (dose: 1.56 mg/kg/injection, schedule: Q01DX009 (ip), vehicle: saline) was 98 % of control. The T/C (dose: 3.12 mg/kg/injection, schedule: Q01DX009 (ip), vehicle: saline with Tween-80) was 164 % of control, the T/C (dose: 3.12 mg/kg/injection, schedule: Q01DX009 (ip), vehicle: saline) was 111 % of control and the T/C [1] was 108 % of control.

`CCCCC(NC(=O)C(C)NC(=O)OCc1ccccc1)C(=O)O` (stereo not drawn) was tested, and the T/C [12] was 101 % of control, the T/C [13] was 99 % of control and the T/C (dose: 400.0 mg/kg/injection, schedule: Q01DX009 (ip), vehicle: Klucel (hydroxypropylcellulose) (HPC)) was 94 % of control.

With `[N-]=[N+]=CC(=O)CCC(NC(=O)OCc1ccccc1)C(=O)OCc1ccccc1` (stereo not drawn) the T/C [14] was 93 % of control and the T/C [15] was 96 % of control.

In the case of `O=NN(CCCl)C(=O)Oc1ccc(OC(=O)N(CCCl)N=O)cc1`, the T/C (dose: 3.12 mg/kg/injection, schedule: Q01DX009 (ip), vehicle: Klucel (hydroxypropylcellulose) (HPC)) was 112 % of control, the T/C (dose: 6.25 mg/kg/injection, schedule: Q01DX009 (ip), vehicle: Klucel (hydroxypropylcellulose) (HPC)) was 107 % of control and the T/C [16] was 107 % of control.

`CC[C@H](CC[C@@H](C)C1CC[C@H]2[C@@H]3CC=C4C[C@@H](OP(=O)(N5CC5)N5CC5)CC[C@]4(C)[C@H]3CC[C@]12C)C(C)C` (stereo partly drawn) was tested, and the T/C (dose: 12.5 mg/kg/injection, schedule: Q01DX009 (ip), vehicle: saline with Tween-80) was 95 % of control and 99 % of control, the T/C [8] was 110 % of control and 101 % of control and the T/C [9] was 90 % of control and 97 % of control. The T/C [10] was 91 % of control and 94 % of control and the T/C [11] was 93 % of control and 95 % of control.

For `Cc1ncc([N+](=O)[O-])n1CCO`, the T/C (dose: 37.5 mg/kg/injection, schedule: Q01DX009 (ip), vehicle: Klucel (hydroxypropylcellulose) (HPC)) was 103 % of control, the T/C (dose: 75.0 mg/kg/injection, schedule: Q01DX009 (ip), vehicle: Klucel (hydroxypropylcellulose) (HPC)) was 100 % of control and the T/C (dose: 150.0 mg/kg/injection, schedule: Q01DX009 (ip), vehicle: Klucel (hydroxypropylcellulose) (HPC)) was 101 % of control. The T/C (dose: 300.0 mg/kg/injection, schedule: Q01DX009 (ip), vehicle: Klucel (hydroxypropylcellulose) (HPC)) was 92 % of control and the T/C (dose: 600.0 mg/kg/injection, schedule: Q01DX009 (ip), vehicle: Klucel (hydroxypropylcellulose) (HPC)) was 100 % of control.

For `CC(O)C(NC(=O)OCC1c2ccccc2-c2ccccc21)C(=O)O` (stereo not drawn), the T/C [16] was 94 % of control and 98 % of control, the T/C [14] was 88 % of control and 96 % of control and the T/C [15] was 100 % of control and 101 % of control. The T/C [12] was 93 % of control and 98 % of control and the T/C [13] was 90 % of control and 100 % of control.

For `C[N+](C)=C1C=CC(=C2C=CSC=C2)C=C1`, the T/C (dose: 3.0 mg/kg/injection, schedule: Q01DX009 (ip), vehicle: saline) was 115 % of control and the T/C [1] was 116 % of control.

With `C1CN1P1(N2CC2)=NP(N2CC2)(N2CC2)=NP(N2CC2)(N2CC2)=N1` the T/C (dose: 1.0 mg/kg/injection, schedule: Q01DX009 (ip), vehicle: Klucel (hydroxypropylcellulose) (HPC)) was 116 % of control and 94 % of control, the T/C (dose: 1.0 mg/kg/injection, schedule: Q02DX009 (ip), vehicle: Klucel (hydroxypropylcellulose) (HPC)) was 113 % of control and 114 % of control and the T/C (dose: 2.0 mg/kg/injection, schedule: Q01DX009 (ip), vehicle: Klucel (hydroxypropylcellulose) (HPC)) was 119 % of control. For the same molecule, the T/C (dose: 2.0 mg/kg/injection, schedule: Q02DX009 (ip), vehicle: Klucel (hydroxypropylcellulose) (HPC)) was 114 % of control and 106 % of control, the T/C (dose: 4.0 mg/kg/injection, schedule: Q02DX009 (ip), vehicle: Klucel (hydroxypropylcellulose) (HPC)) was 120 % of control and 122 % of control and the T/C (dose: 8.0 mg/kg/injection, schedule: Q01DX009 (ip), vehicle: Klucel (hydroxypropylcellulose) (HPC)) was 180 % of control. The T/C (dose: 8.0 mg/kg/injection, schedule: Q02DX009 (ip), vehicle: Klucel (hydroxypropylcellulose) (HPC)) was 117 % of control and the T/C (dose: 16.0 mg/kg/injection, schedule: Q02DX009 (ip), vehicle: Klucel (hydroxypropylcellulose) (HPC)) was 195 % of control.

`CCCC(NC(=O)OCc1ccccc1)C(=O)NC(C(=O)O)C(C)CC` (stereo not drawn) (Cbz-[Nva]-Ile-OH; configuration not given here) was tested, and the T/C [12] was 101 % of control and the T/C [13] was 109 % of control.

In the case of `C=C1C(=O)OC2/C=C(\CO)CC/C=C(\CO)CC(OC(=O)C(C)C)C12` (stereo not drawn), the T/C (dose: 3.75 mg/kg/injection, schedule: Q01DX009 (ip), vehicle: Klucel (hydroxypropylcellulose) (HPC)) was 103 % of control.

`O=C1C2=C(C(=O)c3cnccc31)C1C=CC2CC1` (stereo not drawn) was tested, and the T/C (dose: 12.5 mg/kg/injection, schedule: Q01DX009 (ip), vehicle: DMSO) was 115 % of control, the T/C (dose: 25.0 mg/kg/injection, schedule: Q01DX009 (ip), vehicle: DMSO) was 98 % of control and the T/C (dose: 50.0 mg/kg/injection, schedule: Q01DX009 (ip), vehicle: DMSO) was 111 % of control. The T/C (dose: 100.0 mg/kg/injection, schedule: Q01DX009 (ip), vehicle: DMSO) was 98 % of control.
